According to patent US5162361A, “Method of treating diseases associated with elevated levels of interleukin 1” (priority 1990, dated 1992):
“Also recorded” adds a separate entry of the source.

Tests used:
IL-1α mRNA = assay: Northern blot analysis of IL-1α mRNA expression; format: cell-based, rat; conditions: 10 μM pentamidine, LPS, 3 h, FIG. 2
Description: Specific transcription of IL-1α mRNA synthesis was assessed by incubating cells with and without 10 μM pentamidine or 1 μM of the corticosteroid, dexamethasone in the presence or absence of lipopolysaccharide (LPS). At the end of a 3 hour incubation period, the cells were lysed and the total cellular RNA was collected, blotted onto a nitrocellulose filter and probed with ^32 P-labeled IL-1α cDNA. […] In contrast, mRNA for IL-1α was not seen in dexamethasone treated cells.
For determination of IL-1 mRNA levels, cells (4×10^6) were cultured with or without pentamidine (10 μM) or dexamethasone (1 μM) in media with 10% FCS in the presence or absence of LPS (1 μg/ml) for 3 hours. Total cellular RNA was isolated by quanidinium-thiocyanate phenolchloroform extraction (P. Chomczynski et al., Anal. Bioch. 162, 156 (1987)). RNA (10 μg) was electrophoresed in 1.2% agarose gels as previously described (H. Leharch et al., Biochemistry 4743 (1977)). […] Hybridizing species were detected by autoradiography at -70° C., using Kodak XAR film with an intensifying screen. The total RNA levels per lane on the gel was assessed by monitoring 28S and 18S, and expression of α-tubulin mRNA. Accumulation of α-tubulin mRNA was determined by probing the same blot with ^32 P labeled 30 mer oligonucleotide (Du Pont).

membrane IL-1 = assay: Effect on membrane IL-1 (mIL-1 bioassay); format: cell-based, rat; conditions: LPS 5 ng/ml, 24 h, FIG. 4
Description: Membrane IL-1 was assayed as previously described (E. A. Kurt-Jones et al, Proc. Natl. Acad. Sci. USA, 82, 1204 (1985)). 10^5 cells were cultured in media and 10% FCS with or without pentamidine at varying concentrations and LPS at 5 ng/ml for 24 hours and then fixed to the bottom of the 96 well plates with paraformaldehyde. The IL-1 bioassay was then performed as described in Example 1.

human IL-1 = assay: IL-1 secretion by human alveolar macrophages (enzyme linked immunosorbant assay); format: cell-based; conditions: 10^-5 M
Description: Dose response studies were performed to determine the molar concentration at which pentamidine reduced viability in normal rat macrophages. […] This blockage was shown using an enzyme linked immunosorbant assay with specific antibody to IL-1β.
Four normal healthy human volunteers were lavaged and their pulmonary macrophages cultured in vitro in the presence of 10^-5 M pentamidine and the IL-1 inducer, lipopolysaccharide. Following 24 hours of incubation, the supernatant fluid was collected and stored at -20° C. for IL-1 determination using an enzyme linked immunosorbant assay with specific antibody to human IL-1.

[1] = tested on: Pulmonary alveolar macrophages; assay: Phagocytosis by pulmonary alveolar macrophages (Fluoresbrite beads, flow cytometry); format: cell-based, rat
Description: One ml aliquots were added to sterile teflon vials (Nalgene) along with pentamidine or dexamethasone (Sigma) as indicated, and incubated for 4 hours at 37° C., 5% CO2. Fluoresbrite carboxylate beads, 1.73 μm (Polysciences) were used to achieve a 100:1 bead to cell ratio and the suspension was incubated for 45 minutes at 37° C., 5% CO2 with gentle agitation. Cell suspensions were then layered over 3 mls. of RPMI/FCS+0.3% BSA, and cells pelleted at 150 xg for 10 minutes. Supernates were discarded and cells resuspended in 1 ml of RPMI/FCS for analysis via flow cytometry. The data presented above is the mean of the percentage of cells taking up one or more beads of triplicate cultures.

[2] = tested on: oxazolone induced hypersensitivity; assay: Ear swelling response to oxazolone (delayed-type hypersensitivity); format: in vivo, mice; conditions: pentamidine isethionate (heading), epicutaneous at time of oxazolone challenge, FIG. 5
Description: All groups were sensitized with 25 μl of 2.0% oxazolone on day 0 on the shaved dorsal surface of the back. On day 5, each group was treated with 10 μl of pentamidine on each side of the right ear immediately prior to challenge with 10 μl of 0.5% oxazolone on each side of the right ear. The left ear was treated at same time with the oxazolone vehicle (4:1 acetone:olive oil) and in the same manner as the challenged ear. Ear thickness was determined before, 24 and 48 hours after challenge. The concentration of pentamidine for each group was as follows:
Group 1--80 μg/ear pentamidine
Group 2--40 μg/ear pentamidine
Group 3--20 μg/ear pentamidine
Group 4--10 μg/ear pentamidine
Group 5--5 μg/ear pentamidine
Group 6--no treatment (oxazolone positive control)

tumor necrosis factor [3] = assay: Tumor necrosis factor secretion by rat macrophages; format: cell-based; conditions: pentamidine 10^-5 M, rat macrophages (control 82 units/ml)
Description: (§1) It has also been observed that pentamidine (10^-5 M) blocks the secretion of tumor necrosis factor in rat macrophages (42 units/ml - pentamidine vs. 82 units/ml - control), as well as tumor necrosis factor and IL-6 in human macrophages, where at a concentration of 10^-5 M pentamidine, tumor necrosis factor and IL-6 secretion are suppressed >50%. These additional cytokines are also very influential mediators in inflammatory diseases.
In vitro studies were performed by taking alveolar macrophages from normal healthy rat lungs and culturing them in the presence of an imidazoline with the inducer lipopolysaccharide for 24 hours. The standard bioassay for IL-1 was performed (see above).

tumor necrosis factor [4] = assay: Tumor necrosis factor secretion by human macrophages; format: cell-based; conditions: Macrophage, 10^-5 M, read-out: Suppression of tumor necrosis factor secretion
Source text: as §1

IL-6 = IL-6 secretion by human macrophages; format: cell-based; conditions: Macrophage, 10^-5 M, read-out: Suppression of IL-6 secretion
Source text: as §1

`N=C(N)c1ccc(OCCCCCOc2ccc(C(=N)N)cc2)cc1` [Pentamidine, 1,5-bis(4-amidinophenoxy)pentane] was tested, and the “IL-1α mRNA expression” value (IL-1α mRNA) was “lack of effect on mRNA expression; also recorded: equal amounts of L-1α mRNA”, the “Amount of bioactive membrane IL-1 (mIL-1)” value (membrane IL-1) was “increased in a dose related manner” and the “IL-1 (IL-1β) secretion by human macrophages” value (human IL-1; ELISA with specific antibody to IL-1β, result in words) was “blocks IL-1 secretion; also recorded: decreased IL-1β release by human macrophages”. For the same molecule, the inhibition at 10 µM (human IL-1; Macrophage, 24 h, cumulative over four human subjects, vs. untreated macrophages of same individual, read-out: Suppression in the amount of IL-1 secreted) was 62.1%, the “Phagocytic Index” value ([1]; Pentamidine 10^-5 M (control 32)) was 32% and the “Phagocytic capacity of alveolar macrophages” value ([1]; result in words) was “did not modulate the phagocytic capacity of alveolar macrophages”. For the same molecule, the “Hypersensitivity response as measured by ear swelling” value [2] was “statistically significant (p<0.001) reduction in the hypersensitivity response”, the “Tumor necrosis factor secretion” value (tumor necrosis factor [3]) was 42 units/ml and the inhibition at 10 µM (tumor necrosis factor [4]) was > 50%. For the same molecule, the inhibition at 10 µM (IL-6) was > 50%.
